Data from patent US20190083455A1, “METHODS AND COMPOSITIONS FOR THE MODULATION OF BETA-ENDORPHIN LEVELS” (The General Hospital Corporation, priority 2014, published 2019).

How the values were obtained:
mice = assay: Conditioned place preference testing with i.v. β-endorphin; format: in vivo; conditions: i.v. tail vein
Description: To test whether it is plausible that skin-derived β-endorphin may cause central effects we decided to assess whether peripherally administered β-endorphin injected i.v. into the tail vein could cause conditioned place preference.

β-endorphin = assay: Plasma β-endorphin after topical forskolin treatment; format: in vivo; conditions: male mice, non-K14-SCF vs K14-SCF/Mc1r^e/e
Protocol: Blood samples from mice were collected in EDTA microvotte tubes containing 0.6 UTI aprotinin (Sigma). Samples were spun at 3500 rpm at 4° C. for 20 min and the plasma (top layer) was isolated and transferred to a new tube and stored at −80° C. until β-endorphin measurement was performed. β-Endorphin was measured using a radioimmunoassay from Phoenix Pharmaceuticals, following the manufacturer's instructions.
All experiments were done in C57BL/6J (Jackson laboratory) mice. C57BL/6J Mc1r^e/e (described at Robbins L S, et al., Pigmentation phenotypes of variant extension locus alleles result from point mutations that alter MSH receptor function. Cell. 1993 Mar. 26; 72(6) 72, 827-834.) were crossed with K14-Scf transgenic mice as previously reported (Kunisada T, et. al., Development. 1998 August; 125(15):2915-23.). Mice were 8 weeks old at the start of each experiment.
A crude extract of Coleus forskohlii root preparation was used as a working source of forskolin (ATZ Natural, Edgewater, N.J.) for the topical treatment of this drug (Lin C B, et. al., Modulation of microphthalmia-associated transcription factor gene expression alters skin pigmentation. J Invest Dermatol 119, 1330-1340 (2002)). […] Samples were processed and β-endorphin was measured.

[1] = tested on: B16, B16-F0, Melan-a and PAM212 mouse cell lines; assay: RT-qPCR of POMC and Mitf after forskolin treatment, mouse cell lines; format: cell-based; conditions: 20 μM forskolin; mouse cells
Protocol: (§1) UACC62 and UAC257 human melanoma cells were obtained from NCI and grown in RPMI (Cellgro) medium supplemented with 10% fetal bovine serum and penicillin/streptomycin/L-glutamine. Malme-3M human melanoma and B16 mouse melanoma cell line were obtained from ATCC and grown in DEMEM (Cellgro) medium supplemented with 5% fetal bovine serum and 1% penicillin/streptomycin/L-glutamine. Melan-a cells were kindly provided by Dorothy C. Bennett and were grown in Ham's F10 medium supplemented with 10% fetal bovine serum and 1% penicillin/streptomycin/L-glutamine. The mouse keratinocyte cell line PAM212 was generously shared by Dr. Paolo Dotto (Massachusetts General Hospital and Harvard Medical School, Boston, Mass.) and grown in 10% fetal bovine serum and 1% penicillin/streptomycin/L-glutamine. Cells were grown to 70% confluence prior to use in experiments in humidified incubators supplemented with 5% CO2.
(§2) After forskolin (Sigma) treatment at 20 μM final concentration at the stated times, mRNA was isolated using RNeasy® plus minikits from Qiagen, and was subjected to KAPA SYBR® FAST One-Step qRT-PCR (Kapa Biosystems). For each reaction, 100 ng of RNA was subjected to the following steps: reverse transcription for 30 min at 48° C., inactivation for 10 min at 95° C., expansion for 40 cycles (15 sec at 95° C. and 30 sec at 60° C.). The results are the average of three independent experiments. […]

[2] = tested on: Malme-3M, UAC257 and UACC62 human melanoma cell lines; assay: RT-qPCR of POMC after forskolin treatment, human melanoma cell lines; format: cell-based; conditions: 20 μM forskolin; human samples
Protocol: as §1, §2

Row | Compound | conditioned place preference (time spent in the white box) (mice) | β-endorphin fold induction, comparison of genotypes (β-endorphin) | time of peak Mitf mRNA expression after treatment [1] [h] | time of peak POMC mRNA expression after treatment [1] [h] | time point of increase of POMC after treatment [2] [h]
1 | β-endorphin (YGGFMTSEKSQTPLVTLFKNAIIKNAYKKGE; Beta-endorphin; UniProt P01189 237-267, looked up) [endogenous opioid peptide, administered i.v. through the tail vein] | spent more time in the white box after conditioning | – | – | – | –
2 | C=C[C@@]1(C)CC(=O)[C@]2(O)[C@@]3(C)[C@@H](O)CCC(C)(C)[C@@H]3[C@H](O)[C@H](OC(C)=O)[C@@]2(C)O1 [forskolin] | – | higher fold induction in the non-K14-SCF mice compared to the K14-SCF/Mc1r^e/e | 2 | 8 | 2 to 4
